In patent US20210045385A1, “PYRIDAZINONE-SUBSTITUTED KETOXIMES AS HERBICIDES” (FMC Corporation, priority 2018, published 2021):

Experiments:
Format in all cases: in vivo
[1] = tested on: rice (Oryza sativa); test: Test B flooded paddy test, visual plant response rating; conditions: 250 g ai/ha, Flood, applied to paddy water, 2-leaf stage, evaluated after 13 to 15 days
Method in brief: (§1)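 At the two-leaf stage, seedlings received compound applied to paddy water flooded 3 cm above soil, a level sustained until assessment. Greenhouse incubation lasted 13 to 15 days before visual comparison with control plants.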

[2] = tested on: barnyardgrass (Echinochloa crus-galli); test: as above; conditions: 250 g ai/ha, Flood, applied to paddy water, 2-leaf stage, evaluated after 13 to 15 days
Method in brief: as §1

[3] = tested on: sedge, umbrella (small-flower umbrella sedge, Cyperus difformis); test: as above; conditions: 250 g ai/ha, Flood, applied to paddy water, 2-leaf stage, evaluated after 13 to 15 days
Method in brief: as §1

[4] = tested on: ducksalad (Heteranhera limosa); test: as above; conditions: 250 g ai/ha, Flood, applied to paddy water, 2-leaf stage, evaluated after 13 to 15 days
Method in brief: as §1

[5] = tested on: ragweed (common ragweed, Ambrosia elatior); test: Test A postemergence, visual plant response rating; conditions: for Ragweed plant response rating (0 to 100 scale): 500 g ai/ha, postemergence, 0 is no effect, 100 is complete control; for Ragweed plant response rating: Postemergence, 125 g ai/ha, 0 to 100 scale (0 no effect, 100 complete control)
Method in brief: (§2)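 Compared with untreated controls, treated plants received a visual injury score on a 0–100 scale around 10 days after application. The compound, in a non-phytotoxic solvent with surfactant, was given as a preemergence soil spray or postemergence at the one- to two-leaf stage.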

[6] = tested on: barnyardgrass (Echinochloa crus-galli); test: Test A postemergence, visual plant response rating; conditions: for Barnyardgrass plant response rating (0 to 100 scale): 500 g ai/ha, postemergence, 0 is no effect, 100 is complete control; for Barnyardgrass plant response rating: Postemergence, 125 g ai/ha, 0 to 100 scale (0 no effect, 100 complete control)
Method in brief: as §2

[7] = tested on: wheat (Triticum aestivum); test: Test A postemergence, visual plant response rating; conditions: for Wheat plant response rating (0 to 100 scale): 500 g ai/ha, postemergence, 0 is no effect, 100 is complete control; for Wheat plant response rating: Postemergence, 125 g ai/ha, 0 to 100 scale (0 no effect, 100 complete control)
Method in brief: as §2

[8] = tested on: blackgrass (Alopecurus myosuroides); test: Test A postemergence, visual plant response rating; conditions: for Blackgrass plant response rating (0 to 100 scale): 500 g ai/ha, postemergence, 0 is no effect, 100 is complete control; for Blackgrass plant response rating: Postemergence, 125 g ai/ha, 0 to 100 scale (0 no effect, 100 complete control)
Method in brief: as §2

[9] = tested on: foxtail, giant (giant foxtail, Setaria faberii); test: Test A postemergence, visual plant response rating; conditions: for Foxtail, Giant plant response rating (0 to 100 scale): 500 g ai/ha, postemergence, 0 is no effect, 100 is complete control; for Foxtail, Giant plant response rating: Postemergence, 125 g ai/ha, 0 to 100 scale (0 no effect, 100 complete control)
Method in brief: as §2

[10] = tested on: corn (Zea mays); test: Test A postemergence, visual plant response rating; conditions: for Corn plant response rating (0 to 100 scale): 500 g ai/ha, postemergence, 0 is no effect, 100 is complete control; for Corn plant response rating: Postemergence, 125 g ai/ha, 0 to 100 scale (0 no effect, 100 complete control)
Method in brief: as §2

[11] = tested on: kochia (Kochia scoparia); test: Test A postemergence, visual plant response rating; conditions: for Kochia plant response rating (0 to 100 scale): 500 g ai/ha, postemergence, 0 is no effect, 100 is complete control; for Kochia plant response rating: Postemergence, 125 g ai/ha, 0 to 100 scale (0 no effect, 100 complete control)
Method in brief: as §2

[12] = tested on: Italian ryegrass (Lolium multiflorum); test: Test A postemergence, visual plant response rating; conditions: for Ryegrass, Italian plant response rating (0 to 100 scale): 500 g ai/ha, postemergence, 0 is no effect, 100 is complete control; for Ryegrass, Italian plant response rating: Postemergence, 125 g ai/ha, 0 to 100 scale (0 no effect, 100 complete control)
Method in brief: as §2

[13] = tested on: galium (catchweed bedstraw, Galium aparine); test: Test A postemergence, visual plant response rating; conditions: for Galium plant response rating (0 to 100 scale): 500 g ai/ha, postemergence, 0 is no effect, 100 is complete control; for Galium plant response rating: Postemergence, 125 g ai/ha, 0 to 100 scale (0 no effect, 100 complete control)
Method in brief: as §2

[14] = tested on: pigweed (Amaranthus retroflexus); test: Test A postemergence, visual plant response rating; conditions: for Pigweed plant response rating (0 to 100 scale): 500 g ai/ha, postemergence, 0 is no effect, 100 is complete control; for Pigweed plant response rating: Postemergence, 125 g ai/ha, 0 to 100 scale (0 no effect, 100 complete control)
Method in brief: as §2

[15] = tested on: ragweed (common ragweed, Ambrosia elatior); test: Test A preemergence, visual plant response rating; conditions: for Ragweed plant response rating: 125 g ai/ha, preemergence, 0 to 100 scale, 0 no effect, 100 complete control; for Ragweed plant response rating (0 to 100 scale): 500 g ai/ha Preemergence, approx. 10 days
Method in brief: as §2

[16] = tested on: barnyardgrass (Echinochloa crus-galli); test: Test A preemergence, visual plant response rating; conditions: for Barnyardgrass plant response rating: 125 g ai/ha, preemergence, 0 to 100 scale, 0 no effect, 100 complete control; for Barnyardgrass plant response rating (0 to 100 scale): 500 g ai/ha Preemergence, approx. 10 days
Method in brief: as §2

[17] = tested on: foxtail, giant (giant foxtail, Setaria faberii); test: Test A preemergence, visual plant response rating; conditions: for Foxtail, Giant plant response rating: 125 g ai/ha, preemergence, 0 to 100 scale, 0 no effect, 100 complete control; for Foxtail, Giant plant response rating (0 to 100 scale): 500 g ai/ha Preemergence, approx. 10 days
Method in brief: as §2

[18] = tested on: kochia (Kochia scoparia); test: Test A preemergence, visual plant response rating; conditions: for Kochia plant response rating: 125 g ai/ha, preemergence, 0 to 100 scale, 0 no effect, 100 complete control; for Kochia plant response rating (0 to 100 scale): 500 g ai/ha Preemergence, approx. 10 days
Method in brief: as §2

[19] = tested on: Italian ryegrass (Lolium multiflorum); test: Test A preemergence, visual plant response rating; conditions: for Ryegrass, Italian plant response rating: 125 g ai/ha, preemergence, 0 to 100 scale, 0 no effect, 100 complete control; for Ryegrass, Italian plant response rating (0 to 100 scale): 500 g ai/ha Preemergence, approx. 10 days
Method in brief: as §2

[20] = tested on: pigweed (Amaranthus retroflexus); test: Test A preemergence, visual plant response rating; conditions: for Pigweed plant response rating: 125 g ai/ha, preemergence, 0 to 100 scale, 0 no effect, 100 complete control; for Pigweed plant response rating (0 to 100 scale): 500 g ai/ha Preemergence, approx. 10 days
Method in brief: as §2

SMILES	Plant response rating, Rice (0 to 100 scale, 0 is no effect, 100 is complete control) [1]	Plant response rating, Barnyardgrass (0 to 100 scale, 0 is no effect, 100 is complete control) [2]	Plant response rating, Sedge, Umbrella (0 to 100 scale, 0 is no effect, 100 is complete control) [3]	Plant response rating, Ducksalad (0 to 100 scale, 0 is no effect, 100 is complete control) [4]	Ragweed plant response rating (0 to 100 scale) [5]	Ragweed plant response rating [5]	Barnyardgrass plant response rating (0 to 100 scale) [6]	Barnyardgrass plant response rating [6]	Wheat plant response rating (0 to 100 scale) [7]	Wheat plant response rating [7]	Blackgrass plant response rating (0 to 100 scale) [8]	Blackgrass plant response rating [8]	Foxtail, Giant plant response rating (0 to 100 scale) [9]	Foxtail, Giant plant response rating [9]	Corn plant response rating (0 to 100 scale) [10]	Corn plant response rating [10]	Kochia plant response rating (0 to 100 scale) [11]	Kochia plant response rating [11]	Ryegrass, Italian plant response rating (0 to 100 scale) [12]	Ryegrass, Italian plant response rating [12]	further results
CCc1ccccc1C(=NOC)c1c(O)c(C)nn(C)c1=O [Compound 37]	0	0	0	0	80	60	20	10	10	0	80	60	70	30	30	0	80	60	90	80	Galium plant response rating (0 to 100 scale) [13]: 90; Galium plant response rating [13]: 80; Pigweed plant response rating (0 to 100 scale) [14]: 90; Pigweed plant response rating [14]: 70; Ragweed plant response rating [15]: 10; Ragweed plant response rating (0 to 100 scale) [15]: 80; Barnyardgrass plant response rating [16]: 0; Barnyardgrass plant response rating (0 to 100 scale) [16]: 20; Foxtail, Giant plant response rating [17]: 30; Foxtail, Giant plant response rating (0 to 100 scale) [17]: 80; Kochia plant response rating [18]: 0; Kochia plant response rating (0 to 100 scale) [18]: 80; Ryegrass, Italian plant response rating [19]: 40; Ryegrass, Italian plant response rating (0 to 100 scale) [19]: 60; Pigweed plant response rating [20]: 40; Pigweed plant response rating (0 to 100 scale) [20]: 90
CO/N=C(\c1cc(C)ccc1Cl)c1c(O)c(C)nn(C)c1=O [Compound 38]	0	0	0	0	70	60	20	20	0	0	30	10	30	10	20	10	50	10	20	10	Galium plant response rating (0 to 100 scale) [13]: 90; Galium plant response rating [13]: 80; Pigweed plant response rating (0 to 100 scale) [14]: 60; Pigweed plant response rating [14]: 20; Ragweed plant response rating [15]: 30; Ragweed plant response rating (0 to 100 scale) [15]: 30; Barnyardgrass plant response rating [16]: 0; Barnyardgrass plant response rating (0 to 100 scale) [16]: 0; Foxtail, Giant plant response rating [17]: 0; Foxtail, Giant plant response rating (0 to 100 scale) [17]: 10; Kochia plant response rating [18]: 0; Kochia plant response rating (0 to 100 scale) [18]: 20; Ryegrass, Italian plant response rating [19]: 0; Ryegrass, Italian plant response rating (0 to 100 scale) [19]: 0; Pigweed plant response rating [20]: 0; Pigweed plant response rating (0 to 100 scale) [20]: 0
CO/N=C(\c1c(C)cccc1F)c1c(O)c(C)nn(C)c1=O [Compound 39]	0	0	0	0	60	0	10	0	10	0	0	0	0	0	20	0	0	0	0	0	Galium plant response rating (0 to 100 scale) [13]: 70; Galium plant response rating [13]: 40; Pigweed plant response rating (0 to 100 scale) [14]: 10; Pigweed plant response rating [14]: 0; Ragweed plant response rating [15]: 0; Ragweed plant response rating (0 to 100 scale) [15]: 30; Barnyardgrass plant response rating [16]: 0; Barnyardgrass plant response rating (0 to 100 scale) [16]: 0; Foxtail, Giant plant response rating [17]: 0; Foxtail, Giant plant response rating (0 to 100 scale) [17]: 0; Kochia plant response rating [18]: 0; Kochia plant response rating (0 to 100 scale) [18]: 0; Ryegrass, Italian plant response rating [19]: 0; Ryegrass, Italian plant response rating (0 to 100 scale) [19]: 0; Pigweed plant response rating [20]: 0; Pigweed plant response rating (0 to 100 scale) [20]: 0
CON=C(c1c(O)c(C)nn(C)c1=O)c1ccc(Cl)c2ccccc12 [Compound 40]	0	0	0	0	80	70	30	30	50	20	80	70	50	10	10	0	40	10	90	50	Galium plant response rating (0 to 100 scale) [13]: 100; Galium plant response rating [13]: 70; Pigweed plant response rating (0 to 100 scale) [14]: 40; Pigweed plant response rating [14]: 10; Ragweed plant response rating [15]: 40; Ragweed plant response rating (0 to 100 scale) [15]: 80; Barnyardgrass plant response rating [16]: 30; Barnyardgrass plant response rating (0 to 100 scale) [16]: 60; Foxtail, Giant plant response rating [17]: 50; Foxtail, Giant plant response rating (0 to 100 scale) [17]: 90; Kochia plant response rating [18]: 0; Kochia plant response rating (0 to 100 scale) [18]: 10; Ryegrass, Italian plant response rating [19]: 20; Ryegrass, Italian plant response rating (0 to 100 scale) [19]: 60; Pigweed plant response rating [20]: 30; Pigweed plant response rating (0 to 100 scale) [20]: 60
